Measurements reported in ChEMBL document CHEMBL1157646, “Melanogenesis inhibitors from the desert plant Anastatica hierochuntica in B16 melanoma cells” (Bioorg Med Chem, 2010).
Activity calls are given as the source filed them. No cut-off for these calls is given here.

Key:
cells [1] = conditions: Mus musculus, B16-4A5, 72 h, read-out: INH
Description: Inhibition of theophylline-stimulated melanogenesis in mouse B16-4A5 cells at 10 uM after 72 hrs

[2] = Toxicity in mouse B16-4A5 cells assessed as inhibition of cell proliferation at 10 uM in presence of 1 mM theophylline after 72 hrs by WST8 dye reduction assay; assay type: cell-based
[3] = Toxicity in mouse B16-4A5 cells assessed as inhibition of cell proliferation at 30 uM in presence of 1 mM theophylline after 72 hrs by WST8 dye reduction assay; assay type: cell-based
[4] = Effect on TRP1 mRNA expression in mouse B16-4A5 cells assessed as TRP1 mRNA/beta-actin mRNA expression ratio at 1 uM in presence of 1 mM theophylline after 72 hrs by RT-PCR; assay type: functional
[5] = Toxicity in mouse B16-4A5 cells assessed as inhibition of cell proliferation at 1 uM in presence of 1 mM theophylline after 72 hrs by WST8 dye reduction assay; assay type: cell-based
[6] = Effect on TRP1 mRNA expression in mouse B16-4A5 cells assessed as TRP1 mRNA/beta-actin mRNA expression ratio at 30 uM in presence of 1 mM theophylline after 72 hrs by RT-PCR; assay type: functional
[7] = Toxicity in mouse B16-4A5 cells assessed as inhibition of cell proliferation in presence of 1 mM theophylline after 72 hrs by WST8 dye reduction assay; assay type: cell-based
cells [8] = conditions: Mus musculus, B16-4A5, 72 h, read-out: INH; remark: listed apart in the source
Description: Inhibition of theophylline-stimulated melanogenesis in mouse B16-4A5 cells at 3 uM after 72 hrs

[9] = Effect on TRP2 mRNA expression in mouse B16-4A5 cells assessed as TRP2 mRNA/beta-actin mRNA expression ratio at 30 uM in presence of 1 mM theophylline after 72 hrs by RT-PCR; assay type: functional
[10] = Effect on TRP1 mRNA expression in mouse B16-4A5 cells assessed as TRP1 mRNA/beta-actin mRNA expression ratio at 10 uM in presence of 1 mM theophylline after 72 hrs by RT-PCR; assay type: functional
cells [11] = conditions: Mus musculus, B16-4A5, 72 h, read-out: INH; remark: listed apart in the source
Description: Inhibition of theophylline-stimulated melanogenesis in mouse B16-4A5 cells at 1 uM after 72 hrs

[12] = Effect on tyrosinase mRNA expression in mouse B16-4A5 cells assessed as tyrosinase mRNA/beta-actin mRNA expression ratio at 30 uM in presence of 1 mM theophylline after 72 hrs by RT-PCR; assay type: functional
[13] = Effect on tyrosinase mRNA expression in mouse B16-4A5 cells assessed as tyrosinase mRNA/beta-actin mRNA expression ratio at 1 uM in presence of 1 mM theophylline after 72 hrs by RT-PCR; assay type: functional
[14] = Effect on TRP1 mRNA expression in mouse B16-4A5 cells assessed as TRP1 mRNA/beta-actin mRNA expression ratio at 3 uM in presence of 1 mM theophylline after 72 hrs by RT-PCR; assay type: functional
[15] = target: T1, Mitogen-activated protein kinase 1 and 3 (ERK2 and ERK1) (Mus musculus) (UniProt P63085+Q63844); assay: Inhibition of ERK1/2 phosphorylation in mouse B16-4A5 cells at 10 to 30 uM in presence of 1 mM theophylline after 72 hrs by immunoblot; assay type: cell-based
[16] = Effect on TRP2 mRNA expression in mouse B16-4A5 cells assessed as TRP2 mRNA/beta-actin mRNA expression ratio at 1 uM in presence of 1 mM theophylline after 72 hrs by RT-PCR; assay type: functional
[17] = Effect on TRP2 mRNA expression in mouse B16-4A5 cells assessed as TRP2 mRNA/beta-actin mRNA expression ratio at 10 uM in presence of 1 mM theophylline after 72 hrs by RT-PCR; assay type: functional
[18] = Effect on tyrosinase mRNA expression in mouse B16-4A5 cells assessed as tyrosinase mRNA/beta-actin mRNA expression ratio at 10 uM in presence of 1 mM theophylline after 72 hrs by RT-PCR; assay type: functional
[19] = Toxicity in mouse B16-4A5 cells assessed as inhibition of cell proliferation at 3 uM in presence of 1 mM theophylline after 72 hrs by WST8 dye reduction assay; assay type: cell-based
[20] = target: T2, Tyrosinase (Agaricus bisporus) (UniProt O42713); assay: Inhibition of mushroom tyrosinase at 1 uM
T2 sequence (whole entry): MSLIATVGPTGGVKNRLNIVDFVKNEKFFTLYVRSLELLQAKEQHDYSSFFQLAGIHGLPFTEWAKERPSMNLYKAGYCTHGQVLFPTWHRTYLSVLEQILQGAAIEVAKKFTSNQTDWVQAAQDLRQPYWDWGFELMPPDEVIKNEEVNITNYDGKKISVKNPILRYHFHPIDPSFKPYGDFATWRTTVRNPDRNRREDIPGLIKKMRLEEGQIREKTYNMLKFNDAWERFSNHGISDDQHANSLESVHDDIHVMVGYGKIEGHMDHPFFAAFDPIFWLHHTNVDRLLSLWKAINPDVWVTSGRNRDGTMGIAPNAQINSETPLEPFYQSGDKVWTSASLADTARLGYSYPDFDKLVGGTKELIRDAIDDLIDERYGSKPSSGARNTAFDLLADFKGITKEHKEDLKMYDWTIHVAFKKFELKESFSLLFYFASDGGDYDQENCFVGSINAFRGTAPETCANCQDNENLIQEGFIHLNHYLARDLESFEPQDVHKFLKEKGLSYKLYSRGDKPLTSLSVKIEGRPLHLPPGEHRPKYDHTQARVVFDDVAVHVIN

[21] = Effect on tyrosinase mRNA expression in mouse B16-4A5 cells assessed as tyrosinase mRNA/beta-actin mRNA expression ratio at 3 uM in presence of 1 mM theophylline after 72 hrs by RT-PCR; assay type: functional
[22] = Effect on TRP2 mRNA expression in mouse B16-4A5 cells assessed as TRP2 mRNA/beta-actin mRNA expression ratio at 3 uM in presence of 1 mM theophylline after 72 hrs by RT-PCR; assay type: functional
cells [23] = conditions: Mus musculus, B16-4A5, 72 h, read-out: INH; remark: listed apart in the source
Description: Inhibition of theophylline-stimulated melanogenesis in mouse B16-4A5 cells at 30 uM after 72 hrs

[24] = target: T2, Tyrosinase (Agaricus bisporus); assay: Inhibition of mushroom tyrosinase at 3 uM
[25] = target: T2, Tyrosinase (Agaricus bisporus); assay: Inhibition of mushroom tyrosinase assessed as inhibition of melanin production from dopachrome by autoxidation at 100 uM
[26] = Inhibition of theophylline-stimulated melanogenesis in mouse B16-4A5 cells at 100 uM after 72 hrs; assay type: functional; conditions: B16-4A5, 72 h
[27] = target: T1, Mitogen-activated protein kinase 1 and 3 (ERK2 and ERK1) (Mus musculus); assay: Inhibition of ERK1/2 phosphorylation in mouse B16-4A5 cells at 100 uM in presence of 1 mM theophylline after 72 hrs by immunoblot; assay type: cell-based
Tyrosinase = target: T3, Tyrosinase (Agaricus bisporus, UniProt O42713); assay: Inhibition of mushroom tyrosinase
T3 sequence (O42713 whole entry): T2 sequence (whole entry)

[28] = Inhibition of theophylline-stimulated melanogenesis in mouse B16-4A5 cells at 1000 uM after 72 hrs; assay type: functional; conditions: B16-4A5, 72 h
[29] = Inhibition of theophylline-stimulated melanogenesis in mouse B16-4A5 cells at 300 uM after 72 hrs; assay type: functional; conditions: B16-4A5, 72 h

T1 sequence (P63085 whole entry, looked up): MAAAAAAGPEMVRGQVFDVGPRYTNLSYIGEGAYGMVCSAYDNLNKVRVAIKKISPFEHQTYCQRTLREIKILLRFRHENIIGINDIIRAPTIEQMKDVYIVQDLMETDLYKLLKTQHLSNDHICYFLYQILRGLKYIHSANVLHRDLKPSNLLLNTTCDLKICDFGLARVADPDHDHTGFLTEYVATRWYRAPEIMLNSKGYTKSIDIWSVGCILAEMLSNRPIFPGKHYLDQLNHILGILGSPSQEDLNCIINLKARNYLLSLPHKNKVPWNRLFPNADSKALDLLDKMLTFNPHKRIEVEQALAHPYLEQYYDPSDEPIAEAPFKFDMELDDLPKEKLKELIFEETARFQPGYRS
T1 sequence (Q63844 whole entry, looked up): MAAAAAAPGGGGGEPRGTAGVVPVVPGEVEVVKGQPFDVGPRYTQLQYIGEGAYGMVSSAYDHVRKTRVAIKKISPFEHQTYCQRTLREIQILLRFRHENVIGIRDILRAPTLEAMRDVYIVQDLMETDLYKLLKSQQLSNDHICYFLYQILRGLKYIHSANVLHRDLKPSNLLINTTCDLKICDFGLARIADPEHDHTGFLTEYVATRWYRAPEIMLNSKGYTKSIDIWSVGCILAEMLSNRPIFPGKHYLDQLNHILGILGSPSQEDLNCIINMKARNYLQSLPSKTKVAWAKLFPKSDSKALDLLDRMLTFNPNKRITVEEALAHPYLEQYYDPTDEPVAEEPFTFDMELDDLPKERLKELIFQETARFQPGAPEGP

SMILES | inhibition at 10 µM (cells [1]) [%] | inhibition at 72 h, 10 µM [2] [%] | inhibition at 72 h, 30 µM [3] [%] | Ratio [4] | inhibition at 72 h, 1 µM [5] [%] | Ratio [6] | inhibition at 3 µM (cells [8]) [%] | Ratio [9] | Ratio [10] | inhibition at 1 µM (cells [11]) [%] | Ratio [12] | Ratio [13] | Ratio [14] | Ratio [16] | Ratio [17] | Ratio [18] | inhibition [20] [%] | inhibition at 30 µM (cells [23]) [%] | inhibition [24] [%] | inhibition [25] | other results
COc1cc([C@@H]2Oc3cc([C@H]4Oc5cc(O)cc(O)c5C(=O)[C@@H]4O)ccc3O[C@H]2CO)ccc1O [SILYBIN B] | 10.2 | 11.8 | 44.4 | 0.88 | -2 | 0.73 | 3 | 1.03 | 1.35 | -0.2 | 0.59 | 0.89 | 1.12 | 0.78 | 1.69 | 1.27 | 5.7 | 33 | 8.4 |  | IC50 at 72 h [7]: > 100 µM; inhibition [15]: Active; inhibition at 72 h, 3 µM [19]: -1.4%; Ratio [21]: 0.95; Ratio [22]: 1.31
COc1cc([C@H]2Oc3ccc([C@H]4Oc5cc(O)cc(O)c5C(=O)[C@@H]4O)cc3O[C@@H]2CO)ccc1O [ISOSILYBIN A] | 50.2 | -2.5 | 16 | 1.11 | -2.2 | 0.6 | 19.8 | 0.36 | 1.12 | 11.7 | 0.56 | 0.73 | 1.26 | 0.68 | 0.63 | 0.85 | 5.1 | 72.1 | 7 | inactive | inhibition at 72 h, 3 µM [19]: -1.5%; Ratio [21]: 0.97; Ratio [22]: 0.63
COc1cc([C@@H]2Oc3ccc([C@H]4Oc5cc(O)cc(O)c5C(=O)[C@@H]4O)cc3O[C@H]2CO)ccc1O [ISOSILYBIN B] | 58 |  | < 8.8 | 1.22 |  | 1.14 | 37.5 | 0.64 | 1.14 | 18.7 | 0.87 | 0.79 | 1.02 | 0.97 | 0.74 | 1.33 | 4.2 | 73.4 | 4.8 | inactive | Ratio [21]: 1.15; Ratio [22]: 0.7
O=C1C[C@@H](c2ccc(O)c(O)c2)Oc2cc(O)cc(O)c21 [ERIODICTYOL] | 32.3 |  | < 8.8 |  |  |  | 10.5 |  |  | 6.5 |  |  |  |  |  |  |  | 46.3 |  | inactive | inhibition at 100 µM [26]: 70.5%
COc1cccc(-c2cc(=O)c3ccccc3o2)c1N |  |  |  | 0.92 |  | 1.53 |  | 1.69 | 1.32 |  | 1.79 | 1.01 | 1.18 | 1.12 | 1.3 | 1.61 |  |  |  |  | Ratio [21]: 1.23; Ratio [22]: 1.2
COc1cc([C@H]2Oc3cc([C@H]4Oc5cc(O)cc(O)c5C(=O)[C@@H]4O)ccc3O[C@@H]2CO)ccc1O [SILYBIN A] | 24.4 | 7.5 | 33.8 | 0.79 | -5.7 | 1.07 | 18.8 | 1.6 | 1.6 | 9.2 | 2.11 | 0.92 | 0.89 | 0.95 | 2 | 1.93 | 8.4 | 64.7 | 10.3 | inactive | IC50 at 72 h [7]: > 100 µM; inhibition [27]: Active; inhibition at 72 h, 3 µM [19]: -10.7%; Ratio [21]: 1.12; Ratio [22]: 1
O=c1c(O)c(-c2ccc(O)c(O)c2)oc2cc(O)cc(O)c12 [QUERCETIN] | 34.3 | -8.6 | 11.9 |  | -8.8 |  | 17.1 |  |  | 13.9 |  |  |  |  |  |  | 3.5 | 72.5 | 4.8 | inactive | IC50 (Tyrosinase): 31 µM; inhibition at 72 h, 3 µM [19]: -7.7%
OC[C@H]1O[C@@H](Oc2ccc(O)cc2)[C@H](O)[C@@H](O)[C@@H]1O [ARBUTIN] | 10.6 |  |  |  |  |  |  |  |  |  |  |  |  |  |  |  |  | 20.4 |  |  | inhibition at 1000 µM [28]: 83.7%; inhibition at 300 µM [29]: 61.5%; inhibition at 100 µM [26]: 38.1%
O=c1cc(-c2ccc(O)c(O)c2)oc2cc(O)cc(O)c12 [LUTEOLIN] | 38.1 | 4 | 23.4 |  | -4.8 |  | 13.5 |  |  | 6.2 |  |  |  |  |  |  | 6.4 | 76.7 | 7.1 | inactive | IC50 at 72 h [7]: > 100 µM; inhibition at 72 h, 3 µM [19]: -4.9%
